Active and inactive are the calls of the source. The rule behind the calls is not given here.
Tests used:
[1] = Elimination half-life in C57BL/6 mouse at 50 mg/kg, po measured after 144 hrs by LC-MS/MS analysis; format: ADME, organism-based; conditions: in vivo, read-out: beta t1/2 (converted)
[2] = Permeability of compound at pH 7.4 incubated for 30 mins by PAMPA-GIT assay; format: ADME; conditions: read-out: permeability
[3] = Metabolic stability in human liver microsomes assessed as half-life at 20 uM incubated for 2 hrs by UPLC-MS analysis; format: ADME, Microsome
[4] = tested on: Trypanosoma brucei brucei; experiment: Antitrypanosomal activity against Trypanosoma brucei brucei 427 assessed as reduction in parasitemia in presence of fetal bovine serum; format: functional, organism-based
[5] = tested on: Trypanosoma brucei brucei; experiment: Trypanocidal activity against Trypanosoma brucei brucei 427 assessed as reduction in parasitemia at 0.1 to 1.5 uM incubated for 4 days in presence of nifurtimox by CellTiter-Glo assay; format: functional, organism-based; conditions: dose 0.1-1.5 µM, time 4.0 day
[6] = tested on: Raji; experiment: Cytotoxicity against human Raji cells assessed as inhibition of cell growth incubated for 72 hrs by CellTiter-Glo luminescence assay; format: functional, cell-based
[7] = Efflux ratio of apparent permeability from basolateral to apical side over apical to basolateral side in human Caco-2 cells incubated for 2 hrs by UPLC/MS analysis; format: ADME, cell-based
[8] = Aqueous solubility of compound in 1-propanol at pH 7.4 incubated for 18 hrs by UV spectrum analysis; format: physicochemical; conditions: 1-propanol (aqueous, pH 7.4), pH 7.4
[9] = Metabolic stability in rat liver microsomes assessed as intrinsic clearance at 20 uM; format: ADME, Microsome; conditions: read-out: CLH
[10] = Stability in rat plasma assessed as half-life measured after 24 hrs by UPLC-MS analysis; format: ADME, cell-free
[11] = Stability of compound in SGF assessed as half-life measured after 24 hrs by UPLC-MS analysis; format: ADME
[12] = Tmax in C57BL/6 mouse at 50 mg/kg, po measured after 144 hrs by LC-MS/MS analysis; format: ADME, organism-based; conditions: in vivo
[13] = Toxicity in Sprague-Dawley rat at 50 mg/kg, po measured after 45.3 hrs; format: organism-based; conditions: in vivo
[14] = tested on: Trypanosoma brucei brucei; experiment: Antitrypanosomal activity against Trypanosoma brucei brucei 427 assessed as inhibition of parasite proliferation incubated for 48 hrs by CellTiter-Glo luminescent assay; format: functional, organism-based; conditions: Trypanosoma brucei, 427, 48 h
[15] = Metabolic stability in […] mouse liver microsomes assessed as intrinsic clearance at 20 uM measured after 2 hrs by UPLC-MS analysis; format: ADME, Microsome; conditions: read-out: CLH
[16] = Drug concentration in C57BL/6 mouse brain at 50 mg/kg, po measured after 144 hrs by LC-MS/MS analysis; format: ADME, organism-based; conditions: read-out: Ct
[17] = Protein binding in mouse plasma at 20 uM incubated for 18 hrs by UPLC-MS analysis; format: ADME, cell-free; conditions: read-out: PPB (converted)
[18] = tested on: Trypanosoma congolense; experiment: Antitrypanosomal activity against Trypanosoma congolense IL3000 assessed as inhibition of parasite proliferation incubated for 69 hrs by resazurin dye based microplate fluorometric analysis; format: functional, organism-based; conditions: IL3000, 69 h
[19] = tested on: Trypanosoma congolense; experiment: Antitrypanosomal activity against Trypanosoma congolense STIB 736/IL-1180 infected in NMRI mouse model assessed as survival at 50 mg/kg, ip administrated […] starting from day 7 to day 10 post infection (reference value: 11 day); format: functional
[20] = Stability of compound in PBS at pH 5 assessed as half-life measured after 48 hrs by UPLC-MS analysis; format: physicochemical
[21] = Stability in human plasma assessed as half-life measured after 24 hrs by UPLC-MS analysis; format: ADME, cell-free
[22] = Cmax in Sprague-Dawley rat at 6 mg/kg, iv measured after 45.3 hrs by LC/MS analysis; format: ADME, organism-based; conditions: in vivo
[23] = Stability in mouse plasma assessed as half-life measured after 24 hrs by UPLC-MS analysis; format: ADME, cell-free
[24] = Stability of compound in PBS at pH 7.4 assessed as half-life measured after 48 hrs by UPLC-MS analysis; format: physicochemical
[25] = Metabolic stability in human liver microsomes assessed as intrinsic clearance at 20 uM incubated for 2 hrs by UPLC-MS analysis; format: ADME, Microsome; conditions: read-out: CLH
[26] = tested on: Trypanosoma vivax; experiment: Antitrypanosomal activity against Trypanosoma vivax STIB 719/ ILRAD 560 assessed as inhibition of parasite proliferation incubated for 45 hrs by resazurin dye based microplate fluorometric analysis; format: functional, organism-based; conditions: STIB 719/ ILRAD 560, 45 h
[27] = tested on: Trypanosoma brucei brucei; experiment: Trypanocidal activity against Trypanosoma brucei brucei 427 assessed as reduction in parasitemia at 8 uM incubated for 4 days by clonal dilution based CellTiter-Glo assay; format: functional, organism-based; conditions: time 4.0 day
[28] = Oral bioavailability in Sprague-Dawley rat at 50 mg/kg measured after 45.3 hrs by LC/MS analysis; format: ADME, organism-based; conditions: in vivo
[29] = Metabolic stability in […] mouse liver microsomes assessed as half-life at 20 uM measured after 2 hrs by UPLC-MS analysis; format: ADME, Microsome
[30] = tested on: Trypanosoma brucei rhodesiense; experiment: Antitrypanosomal activity against Trypanosoma brucei rhodesiense STIB900 infected in NMRI mouse model assessed as survival at 50 mg/kg, po pre-infected for 3 days followed by compound administration for 4 days and measured 60 days post infection (reference value: 7 day); format: functional; conditions: time 57 day
[31] = Stability of compound in PBS at pH 3 assessed as half-life measured after 48 hrs by UPLC-MS analysis; format: physicochemical
[32] = Cmax in C57BL/6 mouse at 50 mg/kg, po measured after 144 hrs by LC-MS/MS analysis; format: ADME, organism-based; conditions: in vivo
[33] = Cytotoxicity against human BJ cells assessed as inhibition of cell growth incubated for 72 hrs by CellTiter-Glo luminescence assay; format: toxicity, cell-based
[34] = Clearance in C57BL/6 mouse at 50 mg/kg, po measured after 144 hrs by LC-MS/MS analysis; format: ADME, organism-based; conditions: in vivo
[35] = tested on: HepG2; experiment: Cytotoxicity against human HepG2 cells assessed as inhibition of cell growth incubated for 72 hrs by CellTiter-Glo luminescence assay; format: functional, cell-based; conditions: HepG2, 72 h
[36] = AUC in C57BL/6 mouse at 50 mg/kg, po measured after 144 hrs by LC-MS/MS analysis; format: ADME, organism-based; conditions: in vivo
[37] = Cytotoxicity against HEK293 cells assessed as inhibition of cell growth incubated for 72 hrs by CellTiter-Glo luminescence assay; format: toxicity, cell-based; conditions: human
[38] = Metabolic stability in rat liver microsomes assessed as half-life at 20 uM; format: ADME, Microsome
[39] = Protein binding in human plasma at 20 uM incubated for 18 hrs by UPLC-MS analysis; format: ADME, cell-free; conditions: read-out: PPB (converted)
[40] = Protein binding in rat plasma at 20 uM incubated for 18 hrs by UPLC-MS analysis; format: ADME, cell-free; conditions: read-out: PPB (converted)

Compound: Cc1ccc(-c2nc3ccccc3s2)cc1NC(=O)c1cc([N+](=O)[O-])c(N2CCN(C)CC2)cc1Cl
- half-life [1]: 7 h
- Papp at 0.5 h [2]: 237 ×10⁻⁶ cm/s
- half-life at 20 µM [3]: > 4 h
- Activity [4]: Active
- Activity [5]: Active
- EC50 [6]: > 25000 nM
- efflux ratio at 2 h [7]: 1.92
- solubility at 18 h [8]: ≤ 0.3 µM
- CLint scaled at 20 µM [9]: < 12 mL/min/kg
- half-life [10]: > 24 h
- half-life [11]: > 24 h
- Tmax [12]: 4 h
- Activity [13]: Non-Toxic
- EC50 [14]: 1 nM
- CLint scaled at 20 µM [15]: < 14 mL/min/kg
- concentration at 144 h [16]: 8 µM
- fraction unbound at 18 h, 20 µM [17]: 0.009
- EC50 [18]: 3 nM
- Survival [19]: 21 days
- half-life [20]: > 24 h
- half-life [21]: > 24 h
- Cmax [22]: > 10 µM
- half-life [23]: > 24 h
- half-life [24]: 5.7 h
- CLint scaled at 20 µM [25]: < 6 mL/min/kg
- EC50 [26]: 6 nM
- Activity [27]: inactive
- bioavailability [28]: 14%
- half-life at 20 µM [29]: > 4 h
- Survival [30]: 14 days
- half-life [31]: > 24 h
- Cmax [32]: 6.5 µM
- EC50 at 72 h [33]: > 25000 nM
- CL/F [34]: 0.357 mL/min
- EC50 [35]: > 25000 nM
- AUC at 144 h [36]: 83 µM·h
- EC50 at 72 h [37]: > 25000 nM
- half-life at 20 µM [38]: > 4 h
- fraction unbound at 18 h, 20 µM [39]: 0.002
- fraction unbound at 18 h, 20 µM [40]: 0.007
